| melting point [°C] | SMILES |
| --- | --- |
| 246 to 247 | Oc1c2c(nn1-c1nc3ccc(F)cc3s1)CCc1ccccc1-2 |
| 143 to 174 | c1ccc(-c2cccc3c4c([nH]c23)CCNCC4)cc1 |
| 84 to 86 | CCOC(=O)C1=C(C)NC(CF)=C(C(=O)OCC)C1c1ccccc1C(F)(F)F (centres undefined) |
| 176 to 177 | COc1nc(SC)nc(Cl)c1C(=O)NCc1ncccn1 |
| 248 | O=c1[nH]c2ccccc2n1CCCN1CCC(n2c(=S)[nH]c3ccccc32)CC1 |
| 102 to 103 | CCCCC(=N)NC(=O)Nc1ccc(N)cc1 |
| 166 to 169 | O=C(NCCO)C(=O)NCCO |
| 270 to 271 | Cc1cc(C#N)cc(C(=O)c2[nH]c(=O)[nH]c(=O)c2C(C)(C)C)c1 |
| 53 to 55 | Oc1c(CCCBr)ccc2ccccc12 |
| 104 | CC(C)(C)[C@@H](O)c1cccc(-c2ccc(OCCO)cc2)n1 |
| 188 to 189 | CCCOc1ccccc1-c1nc2nc(NCCCS(C)=O)ncc2c(=O)[nH]1 (centres undefined) |
| 120 to 122 | COC(=O)N(C)n1c(C)nc(N2CCc3ccccc3CC2)c(C#N)c1=O |
| 94 to 95.5 | O=C1C2CCCCC2C(=O)N1c1ccc(Cl)cc1F (centres undefined) |
| 188 | CCc1ccc2c(c1)C=Cc1cc(C)ccc1C2c1cn(-c2ccnc(N(C)CC(=O)Nc3nc(CC(=O)O)cs3)n2)c(=O)[nH]c1=O (centres undefined) |
| 261 to 266 | N#Cc1cc(-c2cccc(F)c2)c[nH]c1=O |
| 94 to 95 | CCc1c(O)ccc2c1CCCC2 |
| 242 to 247 | CN1CCN(C(=O)c2ccc3cc(-c4csc(N(C)S(=O)(=O)c5ccccc5)n4)c(=O)[nH]c3c2)CC1 |
| 100 | CC(=O)c1ccc(-n2cnc(C)c2)cc1 |
| 70 | CC(O)c1nn(Cc2ccccc2)c(=O)o1 (centres undefined) |
| 126 to 130 | COc1ccc(NC(=O)N(C)C)cc1 |
| 59 to 61 | C=CN1CC/C(=C\C)C1=O |
| 189 to 190 | CCc1cc(Oc2ccc(S(C)(=O)=O)nc2)cc2cc(C3=NCC(CC(=O)NC)S3)[nH]c12 (centres undefined) |
| 211 to 212 | COC(=O)C1=C(C)NC(C)=C(S(C)(=O)=O)C1c1ccccc1[N+](=O)[O-] (centres undefined) |

| melting point [°C] | SMILES |
| --- | --- |
| 259 to 261 | O=C(O)c1ccc(-c2ccc3oc([N+](=O)[O-])c(-c4ccccc4)c3c2)cc1 |
| 279 to 281 | COc1c(O)c(OC)c2c(=O)cc(-c3ccc(O)c(O)c3)oc2c1OC |
| 154 to 162 | CCc1n[nH]c(C(N)=O)c1NC(=O)c1cc(S(C)(=O)=O)ccc1OCC(C)C |
| 108 to 111 | CCN(C#N)C(=O)C(C)Oc1ccc(Oc2cnc3cc(F)ccc3n2)cc1 (centres undefined) |
| 198 | COc1cc(OC)c(S(C)(=O)=O)cc1C(=O)NCC1CCCN1C1CCCC1 (centres undefined) |
| 61 to 63 | CON=C1[C@@H](c2cc(OC)c(OC)c(OC)c2)CC[C@@H]1c1cc(OC)c(OC)c(OC)c1 (relative stereo) |
| 173 to 175 | C=CCc1c(O)ccc2c1C(CCNC(=O)CC)CN2C=O (centres undefined) |
| 229 to 230 | CCn1cc(C(=O)O)c(=O)c2c(F)c(F)c(F)c(F)c21 |
| 135 to 136 | Cc1ccnc2c(O)cccc12 |
| 129 to 131 | Cc1ccc(OCCCN2CCN(c3ccc(Cl)nn3)CC2)cc1 |
| 50 to 52 | CCOC(=O)NC(=S)NCC(C)C |
| 161 to 164 | Cn1c(COc2ccc(CC3SC(=O)NC3=O)cc2)nc2ccc(Oc3cccc(NC(=O)Nc4ccccc4C(F)(F)F)c3)cc21 (centres undefined) |
| 120 to 123 | Cc1nc(N2CCN(Cc3cccc(C(=O)O)c3)C2=O)sc1C(=O)NCc1ccccc1 |
| 60 to 62 | CCOC(=O)c1ccccc1COc1ccc(C=O)cc1 |
| 133 | CN1C(=S)N(c2ccc(Cl)c(Cl)c2)C(=N)C1(C)C |
| 80.2 to 84.9 | CCOC(=O)C1C(=O)c2ccccc2OC1C(F)(F)F (centres undefined) |
| 171 to 172 | CCCOCCOc1ccc(-c2ccc3c(c2)C=C(C(=O)Nc2ccc(CN(C)C4CCOCC4)cc2)CCS3(=O)=O)cc1OCC |
| 165 to 166 | N#CC1=C(COCc2ccccc2)Nc2n[nH]cc2C1c1ccccc1Cl (centres undefined) |
| 170 | CCOC(=O)CNC(=O)C1=C(C(=O)Nc2ccc(Cl)cc2F)CCCC1 |
| 103 to 105 | CCOC(=O)C1COc2cc(-c3ccccc3)ccc2O1 (centres undefined) |
| 193 to 194 | c1cc(Cc2cc3ccccc3[nH]2)cc(-c2cc3ccccc3[nH]2)c1 |
| 66 to 68.5 | NCCCc1ccc2c(n1)NCCC2 |
| 156 to 158 | c1ccc(N2CCNc3nc4ccccc4n3CC2)cc1 |

| melting point [°C] | SMILES |
| --- | --- |
| 142 to 143 | O=C(O)Cc1cc(C(=O)c2ccc(Cl)cc2)sc1-c1ccccc1 |
| 126 to 127 | CCOC(=O)Cc1cccc2c(=O)cc(C3=CCCCC3)oc12 |
| 207 to 208 | Cc1oc(-c2ccccc2)nc1COc1cncc(COc2ccccc2CC(=O)O)c1 |
| 54 to 55 | CCn1cc([N+](=O)[O-])cn1 |
| 208 to 210 | O=C1CC2(CCc3cc4ccccc4n3C2)C(=O)N1 (centres undefined) |
| 123 | Cc1ccc(S(=O)(=O)NN=CC(Cl)Cl)cc1 |
| 212 to 215 | O=C1N(Cc2ncccc2C(F)(F)F)c2ccccc2C12COc1ccc3nonc3c12 (centres undefined) |
| 163 to 166 | O=C(Nc1cccc(Cc2nnn[nH]2)c1)C(F)(F)C(F)(F)C(F)(F)C(F)(F)C(F)(F)C(F)(F)C(F)(F)F |
| 137 to 139 | COc1ccc(N2CCN(c3c(C)c(C)c4c(c3C)CC3(CCCC3)O4)CC2)cc1 |
| 96.6 to 98.1 | CCCN(CC(=O)Nc1cnc(C)nc1N(CC)CC)c1ccccc1 |
| 190 to 195 | CC1(C)C(N)CN1c1nc2c(cc1F)c(=O)c(C(=O)O)cn2C1CC1 (centres undefined) |
| 215 to 220 | CCCCN1CCC(NC(=O)c2cnc3c(OC)cccc3c2Nc2ccc(C(=O)NC3CCN(Cc4ccccc4)CC3)cc2)CC1 |
| 75 to 77 | CN1C(=O)OC[C@H]1Cc1ccccc1 |
| 114 to 115 | C[Si](C)(C)CCSCCCNC(=O)n1cc(F)c(=O)[nH]c1=O |
| 79 to 80 | Nc1ccc(Cc2ccccc2)cn1 |
| 106 to 109 | COc1ccc(CN(CCN(C)CCCNC(=O)NCCSCc2csc(NC(=N)N)n2)c2ccccn2)cc1 |
| 188 to 191 | Oc1ccc2cc(-c3cnc(Cc4ccc5ccccc5c4)o3)ccc2c1 |
| 217 to 219 | CCNCC1CCN(c2c(F)cc3c(=O)c(C(=O)O)cn(C4CC4)c3c2OC)C1 (centres undefined) |
| 220 | CCc1cn2c(N)c(Cl)cc(C(=O)NCC3CCN(CCc4ccc(C(C)(C)C)cc4)CC3)c2n1 |
| 111 to 112 | N#Cc1cccc(C=Cc2cccc(F)c2)n1 |
| 166 to 181 | CCc1nccc2c(CC(=O)O)cccc12 |

| SMILES | melting point [°C] |
| --- | --- |
| CCCCCn1c(C)c(C(=O)c2ccc(Br)c3ccccc23)c2cccc(OC)c21 | 114 |
| Cc1cccc(C(=O)CCl)c1O | 65 to 66 |
| Oc1ccc2c(c1)C(Cc1c[nH]cn1)CC2 (centres undefined) | 206 to 208 |
| CNC(=O)Oc1ccc(SC)c2c1CCCC2 | 146 to 147 |
| C=CCC(O)(C(=O)N[C@H]1CN2CCC1CC2)c1cccs1 (some centres undefined) | 54.4 to 58.3 |
| CSC1=NCC2CN=C(c3ccccc3F)c3cc(Cl)ccc3N12 (centres undefined) | 163 to 165 |
| NS(=O)(=O)c1nc2ccc(OC(=O)Cc3ccccc3)cc2s1 | 177 to 179 |

Source: a melting point compilation (Tetko et al.; mined from patent text by program, amines drawn as free bases though some values may be those of a salt)
